Source: patent publication US9751837B2, “Kinase inhibitors” (RESPIVERT LIMITED, priority 2014, dated 2017)
≈ marks a conversion by molar mass, not a printed value. One block for each molecule: values may come before it.

Tests used:
GSK 3α = GSK 3α (Homo sapiens (Human), UniProt P49840); experiment: GSK 3α enzyme inhibition (Method 2), Z-LYTE FRET; assay type: biochemical; settings: read-out: IC50 Values for Enzyme Inhibition GSK3α
Procedure: The enzyme inhibitory activities of compounds disclosed herein are determined by FRET using synthetic peptides labelled with both donor and acceptor fluorophores (Z-LYTE, Invitrogen Ltd., Paisley, UK).
The following two assay variants can be used for determination of GSK 3α inhibition.
The inhibitory activities of compounds of the invention against the GSK 3α enzyme isoform (Invitrogen), are evaluated by determining the level of activation/phosphorylation of the target peptide. The GSK3-α protein (500 ng/mL, 2.5 μL) is mixed with the test compound (2.5 μL at either 4 μg/mL, 0.4 μg/mL, 0.04 μg/mL, or 0.004 μg/mL) for 2 hr at RT. The FRET peptide (8 μM, 2.5 μL), which is a phosphorylation target for GSK3α, and ATP (40 μM, 2.5 μL) are then added to the enzyme/compound mixture and the resulting mixture incubated for 1 hr. Development reagent (protease, 5 μL) is added for 1 hr prior to detection in a fluorescence microplate reader (Varioskan® Flash, ThermoFisher Scientific).
In all cases, the site-specific protease cleaves non-phosphorylated peptide only and eliminates the FRET signal. Phosphorylation levels of each reaction are calculated using the ratio of coumarin emission (donor) over fluorescein emission (acceptor), for which high ratios indicate high phosphorylation and low ratios indicate low phosphorylation levels.
This method follows the same steps as Method 1 above, but utilises a shorter period of mixing of the test compound (105 minutes instead of 2 hours) with the GSK3-α protein. In addition, the concentrations of test compound employed are either 10 μg/mL, 1 μg/mL, 0.1 μg/mL, or 0.01 μg/mL

Jurkat cells = experiment: Cell cytotoxicity assay (r); assay type: cell-based, human; settings: 24 hours
Procedure: 1×10^5 Jurkat cells (immortalised human T lymphocytes) are added to the appropriate number of wells of a 96 well plate in 100 μL of media (RPMI supplemented with 10% foetal bovine serum). 1 μL of DMSO control (final concentration 1.0% v/v) or test compound (final concentration 20, 5 or 1 μg/mL) is added to the wells and incubated at 37° C., 5% CO2. After 24 hours, the plate is centrifuged at 1200 rpm for 3 minutes and the supernatant discarded. Cells are then resuspended in 150 μL (final concentration 7.5 μg/mL) of propidium iodide (PI) in PBS and incubated at 37° C., 5% CO2 for 15 minutes. After 15 minutes, cells are analysed by flow cytometry (BD accuri) using the FL3 window. The % viability is calculated as the % of cells that are PI negative in the test wells normalised to the DMSO control.

[1] = Solubility in fasted-state simulated colonic fluid (FaSSCoF) at pH 6.5; assay type: physicochemical; settings: 25 °C, pH 6.5, fassgf or other biorelevant, thermodynamic from solid
Summary of the method: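 Compounds were suspended at up to 2-10 mg/mL in pH 6.5 Tris/maleate FaSSCoF containing a five-bile-acid mixture, phosphatidylcholine, palmitic acid and BSA. After 24 h equilibration at 25° C the suspension was filtered and the filtrate quantified by HPLC peak area against a standard.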

[2] = pH 6.5 FaSSCoF Solubility (mg/mL) Run 1
[3] = pH 6.5 FaSSCoF Solubility (mg/mL) Run 2

Chain of GSK 3α (P49840 whole entry): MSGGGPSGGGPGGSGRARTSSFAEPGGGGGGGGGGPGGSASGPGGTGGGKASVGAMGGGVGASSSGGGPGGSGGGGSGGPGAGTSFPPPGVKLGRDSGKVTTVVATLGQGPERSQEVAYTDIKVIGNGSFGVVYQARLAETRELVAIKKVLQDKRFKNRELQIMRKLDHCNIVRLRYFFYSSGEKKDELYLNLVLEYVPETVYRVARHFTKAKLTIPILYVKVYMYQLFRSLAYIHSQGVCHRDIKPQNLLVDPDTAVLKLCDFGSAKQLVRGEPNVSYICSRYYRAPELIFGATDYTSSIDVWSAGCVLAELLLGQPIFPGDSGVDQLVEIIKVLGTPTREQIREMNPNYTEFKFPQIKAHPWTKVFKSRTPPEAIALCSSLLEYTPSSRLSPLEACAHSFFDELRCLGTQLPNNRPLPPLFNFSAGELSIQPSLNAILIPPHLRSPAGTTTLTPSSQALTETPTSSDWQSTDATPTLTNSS

IC50 (GSK 3α): 2140 nM
Compound: COCCOCCOCCS(=O)(=O)c1ccc(Nc2cc(Oc3ccc(NC(=O)Nc4cc(C(C)(C)C)cc(NS(C)(=O)=O)c4OC)c4ccccc34)ccn2)cc1OC [Example 12, 1-[5-tert-Butyl-3-(methanesulfonamido)-2-methoxy-phenyl]-3-[4-[[2-[3-methoxy-4-[2-[2-(2-methoxyethoxy)ethoxy]ethylsulfonyl]anilino]-4-pyridyl]oxy]-1-naphthyl]urea]

IC50 (GSK 3α): 1100 nM
Compound: COc1cc(Nc2cc(Oc3ccc(NC(=O)Nc4cc(C(C)(C)C)cc(NS(C)(=O)=O)c4OC)c4ccccc34)ccn2)ccc1C(=O)NCCN1CC[S+]([O-])CC1 [Example 7, 4-((4-((4-(3-(5-(tert-Butyl)-2-methoxy-3-(methylsulfonamido)phenyl)ureido)naphthalen-1-yl)oxy)pyridin-2-yl)amino)-2-methoxy-N-(2-(1-oxidothiomorpholino)ethyl)benzamide]

IC50 (GSK 3α): 4340 nM
Compound: COc1c(NC(=O)Nc2ccc(Oc3ccnc(Nc4ccc(OCCN5CCOCC5)c(C#N)c4)c3)c3ccccc23)cc(C(C)(C)C)cc1NS(C)(=O)=O [Example 9, N-(5-(tert-Butyl)-3-(3-(4-((2-((3-cyano-4-(2-morpholinoethoxy)phenyl)amino)pyridin-4-yl)oxy)naphthalen-1-yl)ureido)-2-methoxyphenyl)methanesulfonamide]

IC50 (GSK 3α): 1300 nM
Compound: COCCOCCOCC[S+]([O-])c1ccc(Nc2cc(Oc3ccc(NC(=O)Nc4cc(C(C)(C)C)cc(NS(C)(=O)=O)c4OC)c4ccccc34)ccn2)cc1OC (centres unmarked) [Example 11, N-(5-(tert-Butyl)-2-methoxy-3-(3-(4-((2-((3-methoxy-4-((2-(2-(2-methoxyethoxy)ethoxy)ethyl)sulfinyl)phenyl)amino)pyridin-4-yl)oxy)naphthalen-1-yl)ureido)phenyl)methanesulfonamide]

IC50 (GSK 3α): 225 nM
Compound: COc1cc(Nc2cc(Oc3ccc(NC(=O)Nc4cc(C(C)(C)C)cc(NS(C)(=O)=O)c4OC)c4ccccc34)ccn2)cc(OC)c1C(=O)O [Example 46, 4-[[4-[[4-[[5-tert-Butyl-3-(methanesulfonamido)-2-methoxyphenyl]carbamoylamino]-1-naphthyl]oxy]-2-pyridyl]amino]-2,6-dimethoxybenzoic acid]

solubility thermodynamic at 24 h [1, 2]: < 1 µg/mL
solubility thermodynamic at 24 h [1, 3]: < 1 µg/mL
Compound: COc1cc(Nc2nccc(Oc3ccc(NC(=O)Nc4cc(C(C)(C)C)cc(NS(C)(=O)=O)c4OC)c4ccccc34)n2)ccc1S(N)(=O)=O [Example 28, 4-((4-((4-(3-(5-(tert-Butyl)-2-methoxy-3-(methylsulfonamido)phenyl)ureido)naphthalen-1-yl)oxy)pyrimidin-2-yl)amino)-2-methoxybenzenesulfonamide]
% Viability at 1 μg/mL (Jurkat cells): 100.0%

solubility thermodynamic at 24 h [1, 2]: 14 µg/mL (≈ 17.1 µM)
solubility thermodynamic at 24 h [1, 3]: 12 µg/mL (≈ 14.7 µM)
Compound: COc1cc(Nc2cc(Oc3ccc(NC(=O)Nc4cc(C(C)(C)C)cc(NS(C)(=O)=O)c4OC)c4ccccc34)ccn2)ccc1C(=O)NCC(CO)(CO)CO [Example 38, 4-((4-((4-(3-(5-(tert-Butyl)-2-methoxy-3-(methylsulfonamido)phenyl)ureido)naphthalen-1-yl)oxy)pyridin-2-yl)amino)-N-(3-hydroxy-2,2-bis(hydroxymethyl)propyl)-2-methoxybenzamide]
% Viability at 1 μg/mL (Jurkat cells): 90.0%
% Viability at 20 μg/mL (Jurkat cells): 6.0%

More lines, now with the values behind:

Compound: COc1cc(Nc2cc(Oc3ccc(NC(=O)Nc4cc(C(C)(C)C)cc(NS(C)(=O)=O)c4OC)c4ccccc34)ccn2)ccc1C(=O)NCCN1CCOC(C)(C)C1 [17(d), 4-[[4-[[4-[[5-tert-butyl-3-(methanesulfonamido)-2-methoxy-phenyl]carbamoylamino]-1-naphthyl]oxy]-2-pyridyl]amino]-N-[2-(2,2-dimethylmorpholin-4-yl)ethyl]-2-methoxy-benzamide]
IC50 (GSK 3α): > 11900 nM

Compound: COc1cc(Nc2cc(Oc3ccc(NC(=O)Nc4cc(C(C)(C)C)cc(NS(C)(=O)=O)c4OC)c4ccccc34)ccn2)ccc1C(=O)NCCCN1CCN(C)CC1 [17(aa), 4-[[4-[[4-[[5-tert-butyl-3-(methanesulfonamido)-2-methoxy-phenyl]carbamoylamino]-1-naphthyl]oxy]-2-pyridyl]amino]-2-methoxy-N-[3-(4-methylpiperazin-1-yl)propyl]benzamide]
IC50 (GSK 3α): 2930 nM

Compound: COc1cc(Nc2cc(Oc3ccc(NC(=O)Nc4cc(C(C)(C)C)cc(NS(C)(=O)=O)c4OC)c4ccccc34)ccn2)ccc1C(=O)NCCN1CCCOCC1 [17(ai), 4-[[4-[[4-[[5-tert-butyl-3-(methanesulfonamido)-2-methoxy-phenyl]carbamoylamino]-1-naphthyl]oxy]-2-pyridyl]amino]-2-methoxy-N-[2-(1,4-oxazepan-4-yl)ethyl]benzamide]
IC50 (GSK 3α): 4480 nM

Compound: COc1cc(Nc2cc(Oc3ccc(NC(=O)Nc4cc(C(C)(C)C)cc(NS(C)(=O)=O)c4OC)c4ccccc34)ccn2)ccc1C(=O)NCCN1CCCN(C)CC1 [17(f), 4-[[4-[[4-[[5-tert-butyl-3-(methanesulfonamido)-2-methoxy-phenyl]carbamoylamino]-1-naphthyl]oxy]-2-pyridyl]amino]-2-methoxy-N-[2-(4-methyl-1,4-diazepan-1-yl)ethyl]benzamide]
IC50 (GSK 3α): 1090 nM

Compound: COCCOCCOC[C@@H](C)NC(=O)c1ccc(Nc2cc(Oc3ccc(NC(=O)Nc4cc(C(C)(C)C)cc(NS(C)(=O)=O)c4OC)c4ccccc34)ccn2)cc1OC [17(g), 4-[[4-[[4-[[5-tert-butyl-3-(methanesulfonamido)-2-methoxy-phenyl]carbamoylamino]-1-naphthyl]oxy]-2-pyridyl]amino]-2-methoxy-N-[(1R)-2-[2-(2-methoxyethoxy)ethoxy]-1-methyl-ethyl]benzamide]
IC50 (GSK 3α): 4100 nM

Compound: COCCOCCOCCNC(=O)c1ccc(Nc2cc(Oc3ccc(NC(=O)Nc4cc(C(C)(C)C)cc(NS(C)(=O)=O)c4OC)c4ccccc34)ccn2)cc1OC [Example 5, 4-((4-((4-(3-(5-(tert-Butyl)-2-methoxy-3-(methylsulfonamido)phenyl)ureido)naphthalen-1-yl)oxy)pyridin-2-yl)amino)-2-methoxy-N-(2-(2-(2-methoxyethoxy)ethoxy)ethyl)benzamide]
IC50 (GSK 3α): 1340 nM

Compound: COc1cc(Nc2cc(Oc3ccc(NC(=O)Nc4cc(C(C)(C)C)cc(NS(C)(=O)=O)c4OC)c4ccccc34)ccn2)ccc1C(=O)N(C)CCN1CCOCC1 [17(ab), 4-[[4-[[4-[[5-tert-butyl-3-(methanesulfonamido)-2-methoxy-phenyl]carbamoylamino]-1-naphthyl]oxy]-2-pyridyl]amino]-2-methoxy-N-methyl-N-(2-morpholinoethyl)benzamide]
IC50 (GSK 3α): 596 nM

Compound: COc1cc(Nc2cc(Oc3ccc(NC(=O)Nc4cc(C(C)(C)C)cc(NS(C)(=O)=O)c4OC)c4ccccc34)ccn2)ccc1C(=O)NCCC1(O)CCN(C)CC1 [17(bg), 4-((4-((4-(3-(5-(tert-Butyl)-2-methoxy-3-(methylsulfonamido)phenyl)ureido)naphthalen-1-yl)oxy)pyridin-2-yl)amino)-N-(2-(4-hydroxy-1-methylpiperidin-4-yl)ethyl)-2-methoxy benzamide]
% Viability at 5 μg/mL (Jurkat cells; 5 μg/mL): 60.0%
% Viability at 20 μg/mL (Jurkat cells): 0.3%
solubility thermodynamic at 24 h [1, 2]: 16 µg/mL (≈ 19 µM)
solubility thermodynamic at 24 h [1, 3]: 19 µg/mL (≈ 22.6 µM)

Compound: COc1cc(Nc2cc(Oc3ccc(NC(=O)Nc4cc(C(C)(C)C)cc(NS(C)(=O)=O)c4OC)c4ccccc34)ccn2)cc(OC)c1C(=O)NCCCN1CCN(C)CC1 [17(au), 4-((4-((4-(3-(5-(tert-Butyl)-2-methoxy-3-(methylsulfonamido)phenyl)ureido)naphthalen-1-yl)oxy)pyridin-2-yl)amino)-2,6-dimethoxy-N-(3-(4-methylpiperazin-1-yl)propyl)benzamide]
% Viability at 1 μg/mL (Jurkat cells): 94.0%
solubility thermodynamic at 24 h [1, 2]: 32 µg/mL (≈ 36.8 µM)
solubility thermodynamic at 24 h [1, 3]: 23 µg/mL (≈ 26.5 µM)

Compound: COc1cc(Nc2nccc(Oc3ccc(NC(=O)Nc4cc(C(C)(C)C)cc(NS(C)(=O)=O)c4OC)c4ccccc34)n2)ccc1C(=O)NCCCN1CCOCC1 [17(ao), 4-((4-((4-(3-(5-(tert-Butyl)-2-methoxy-3-(methylsulfonamido)phenyl)ureido)naphthalen-1-yl)oxy)pyrimidin-2-yl)amino)-2-methoxy-N-(3-morpholinopropyl)benzamide]
% Viability at 20 μg/mL (Jurkat cells): 1.6%
solubility thermodynamic at 24 h [1, 2]: 9 µg/mL (≈ 10.9 µM)
solubility thermodynamic at 24 h [1, 3]: 9 µg/mL (≈ 10.9 µM)
